{"source": "paper PMC6831736", "about": "“Highly Variable Pharmacokinetics of Tyramine in Humans and Polymorphisms in OCT1, CYP2D6, and MAO-A” (Frontiers in Pharmacology, 2019)", "key": {"[1]": {"system": "healthy volunteers", "experiment": "Blood pressure and heart rate effects after 400 mg oral tyramine", "assay_type": "in vivo, human", "description": "Purity was confirmed by HPLC."}, "[2]": {"system": "healthy volunteers", "experiment": "Adverse events, adverse symptoms (visual analogue scales) and pupillometry after 400 mg oral tyramine", "quoted_text": "(§1) To avoid interference by dietary tyramine, food and drink (including alcohol) consumption was prohibited from the evening before the study day until the last blood and urine sampling, except for water at any time and bread with butter 3 h before and 3 h after tyramine administration. A medical examination and electrocardiogram measurement were conducted 3 h prior to tyramine administration. Blood samples were drawn 3 h before and at the following times after tyramine intake: 15, 30, and 45 min as well as 1, 1.5, 2, 2.5, 3, 4, and 6 h. Urine samples were taken from 3 h to 10 min before tyramine administration as well as from 0 to 3 h and from 3 to 6 h after. Blood samples were centrifuged (10 min, 4°C, 4,000 rpm) and plasma and urine samples were stored at −20°C until analysis. Blood pressure and heart rate were measured 3 h, 35 min, and 10 min before tyramine administration, and subsequently in 15 min intervals until 6 h after. In a subgroup of eight participants, blood pressure was continuously monitored based on an analysis of pulse pressure curves using the SOMNOtouch™ NIPB non-invase system (SOMNOmedics GmbH, Randersacker, Germany). An orthostatic blood pressure test was performed 10 min before as well as 30 min and 1.5 h after tyramine intake. Pupillometry was performed 35 min prior to, and 1, 2, and 6 h after tyramine administration. Participants were asked to report on symptoms possibly related to tyramine (headache, fatigue, sleepiness, visual or hearing impairments, restlessness, nausea, dizziness, dry mouth, tremor, sensation of cold, and heart palpitation) using visual analogue scales 3 h before and 1, 3, and 6 h after tyramine intake.\n(§2) The primary endpoint was the AUC of tyramine in plasma. Secondary endpoints were the other pharmacokinetic parameters of tyramine and its metabolite 4-HPAA, as well as heart rate, blood pressure, pupil size effects, and possible adverse events (headache, fatigue, visual or hearing impairments, restlessness, nausea, dizziness, dry mouth, tremor, hypothermia, heart palpitations). In addition, the cumulative amounts of tyramine and 4-HPAA excreted in urine were measured over time periods of 3 h before (baseline) and 6 h after application."}, "[3]": {"design": "method as in earlier work", "conditions": "fasting state; upwards; ref VanDenBerg et al., 2003; Di Stefano et al., 2013; Gillman, 2018; cited from earlier work"}, "[4]": {"system": "organic cation transporter 1 (OCT1, or SLC22A1)", "design": "method as in Breidert et al., 1998", "conditions": "ref Breidert et al., 1998; cited from earlier work"}, "[5]": {"experiment": "Pharmacokinetics of tyramine and its metabolite 4-HPAA in plasma and urine of healthy volunteers after oral administration of 400 mg tyramine", "procedure": "In this open-label pharmacokinetic/pharmacodynamic study, pharmacokinetics and effects of 400 mg oral tyramine were analysed in relation to MAO-A, CYP2D6, and OCT1 genotypes in 88 healthy volunteers. Eighty percent of the participants were unselected volunteers from Göttingen area in Germany; the remaining 20% were selected from an internal database to enrich the study sample with rare OCT1 or CYP2D6 variants. With widely accepted statistical criteria (type I error of 0.05 and type II error of 0.2), at least 10 subjects with genetically defined very low activity of OCT1 or CYP2D6 and a similar or higher number without deficiency should be sufficient to confirm a relevant 50% change in tyramine plasma AUC as a result of genetic variation. Because of the very diverse and not pharmacokinetic-based literature data on the functional effects of MAO-A polymorphisms, no power calculation could be performed with regard to MAO-A genotypes. However, a sample size of nearly a hundred individuals should be sufficient to find genotypes with a population frequency of at least 5%. All volunteers gave their written informed consent before participation in the study. The study was approved by the ethics committee of the University of Göttingen. It was registered at the German Clinical Trials Registry and the World Health Organization International Clinical Trials Registry Platform (DRKS00008915; https://www.drks.de/DRKS00008915).\nPlasma and urine concentrations of tyramine and 4-HPAA were analysed by HPLC with tandem mass spectrometry using tyramine-d4 (Santa Cruz Biotechnology, Inc., Dallas, TX, USA) as internal standard. GR 49336 (5-[[(methylamino)sulfonyl]methyl]-1H-indole-3-acetic acid; Santa Cruz Biotechnology, Inc.) was used as internal standard for 4-HPAA. The analytical standards for tyramine were obtained from Fluka (Morristown, NJ, USA) and for 4-HPAA from Sigma-Aldrich (Darmstadt, Germany). The limit of detection for tyramine was 0.1 ng/ml in plasma and 10 ng/ml in urine; for 4-HPAA, it was 5 ng/ml in plasma and 0.5 µg/ml in urine. The limit of quantification for tyramine was 0.25 ng/ml in plasma and 15 ng/ml in urine; for 4-HPAA, it was 15 ng/ml in plasma and 1.5 µg/ml in urine.\n200 µl of plasma were precipitated in 1.5 ml Eppendorf tubes with 400 µl acetonitrile/methanol (9:1, v:v), including the internal standards. After 10 min on ice, tubes were centrifuged for 30 min at 13,000 rpm, and 300 µl of the supernatant were transferred to a microtiter plate. The supernatant was evaporated using nitrogen and re-dissolved in 0.1% formic acid. 10 µl were injected into the HPLC system. Chromatography was performed using a Shimadzu Nexera system with an API 4000 detector. Separation for analysis of tyramine and methyltyramine was performed at 40°C on a Brownlee SPP RP-Amide 100 x 4.6 mm, 2.7 µm particle size, column using water with 0.1% (v/v) formic acid, 2.57% acetonitrile, and 0.43% methanol as eluent. Detection (positive mode) of tyramine was based on the masses 139.1/121.1 and for tyramine-d4 on 142.0/125.0. Calibration range was 0.5 to 200 µg/l with coefficients of variation of 4.6%, 2.8%, and 2.6% at 2, 20, and 150 µg/l, respectively. Analysis of 4-HPAA was performed on the same system, using 0.1% formic acid, 17.14% acetonitrile, and 2.86% methanol as eluent and detection in the negative mode based on the masses 151.0/107.2 for 4-HPAA and 281.2/142.1 for the internal standard. Calibration range was between 0.03 and 20 mg/l and coefficients of variation were 4.7%, 4.2%, and 3.7% at 1, 5, and 15 mg/l.\nPharmacokinetic parameters were calculated by non-compartmental analysis using Phoenix 64 WinNonlin version 6 (Certara USA, Inc., Princeton NJ, USA). AUCinf of tyramine was calculated from time of dosing using the linear/log trapezoidal rule, and extrapolated to inﬁnity based on the last predicted concentration and using the terminal elimination rate constant (lambda z)."}, "[6]": {"system": "healthy volunteers", "conditions": "in vivo", "quoted_text": "as §1, §2"}, "[7]": {"conditions": "human, in vivo, po, 400 mg, t max"}, "[8]": {"conditions": "human, in vivo, po, 400 mg, tmax, range"}}, "note": "Read-outs that look alike come from different tables or passages of the source."}
{"molecule": "NCCc1ccc(O)cc1", "note": "[Tyramine, tyramine]", "values": [{"measurement": "correlation of rise in systolic blood pressure with systemic tyramine concentration", "setting": "[1]; 400 mg oral tyramine", "result": "correlated strongly"}, {"measurement": "participants with blood pressure peaks by >40 mmHg above baseline", "setting": "[1]; 400 mg oral tyramine", "result": "less than 10%"}, {"measurement": "participants with increases in systolic blood pressure less than 40 mmHg", "setting": "[1]; 400 mg oral tyramine", "result": 90, "unit": "%"}, {"measurement": "tyramine concentrations at which blood pressure peaks by >40 mmHg above baseline were observed", "setting": "[1]; 400 mg oral tyramine", "result": "> 60", "unit": "µg/L"}, {"measurement": "volunteers with systolic blood pressure increased by more than 10 mmHg", "setting": "[1]; 400 mg oral tyramine", "result": 71, "unit": "%"}, {"measurement": "tyramine plasma concentration at which diastolic blood pressure increased", "setting": "[1]; concentration-effect analyses", "result": "higher than 100 µg/l"}, {"measurement": "tyramine plasma concentration at which systolic blood pressure rises", "setting": "[1]; concentration-effect analyses, and above", "result": "≥ 60", "unit": "µg/L"}, {"measurement": "time of blood pressure reaction after tyramine administration", "setting": "[1]; one participant, much delayed", "result": 90, "unit": "min"}, {"measurement": "serious adverse events", "setting": "[2]; 400 mg oral tyramine, 88 healthy volunteers", "result": "no serious adverse events"}, {"measurement": "pupil size and pupil reaction to light before and after tyramine administration", "setting": "[2]; repeated pupillometric analyses", "result": "no difference"}, {"measurement": "correlation of systemic concentration with heart palpitation", "setting": "[2]; visual analogue scales, two-tailed, p < 0.001", "result": "Positive correlations"}, {"measurement": "correlation of systemic concentration with inner restlessness", "setting": "[2]; visual analogue scales, two-tailed, p = 0.02", "result": "Positive correlations"}, {"measurement": "oral tyramine dose at which the pressor response occurs", "setting": "[3]", "result": "≥ 200", "unit": "mg"}, {"measurement": "OCT1 substrate affinity", "setting": "[4]", "result": "substrate with nanomolar affinity"}, {"measurement": "AUC(0-inf)", "setting": "[5]; female, human, in vivo, po, 400 mg", "result": 0.19, "unit": "µM·h"}, {"measurement": "AUC(0-inf)", "setting": "[5]; female, human, in vivo, po, 400 mg, Mean plasma AUCinf", "result": 0.528, "unit": "µM·h"}, {"measurement": "Baseline recovery in the urine cumulated for 3 h prior to tyramine administration", "setting": "[5]; human, in vivo", "result": "0.055 (0.007–0.222) mg"}, {"measurement": "effect of MAO-A genotypes on tyramine pharmacokinetics or its metabolism to 4-HPAA", "setting": "[5]; human, in vivo", "result": "no significant effects"}, {"measurement": "effect of polymorphisms in OCT1 and CYP2D6 on tyramine pharmacokinetics or pharmacodynamics", "setting": "[5]; human, in vivo", "result": "did not significantly affect"}, {"measurement": "Baseline plasma concentration", "setting": "[5]; human, in vivo, -3 h", "result": "0.39 (0.25 & 0.53) ng/ml"}, {"measurement": "participants with baseline plasma concentration below the limit of quantification", "setting": "[5]; human, in vivo, -3 h", "result": 98, "unit": "%"}, {"measurement": "bioavailability", "setting": "[5]; human, in vivo, po", "result": "< 1", "unit": "%"}, {"measurement": "AUC(0-inf)", "setting": "[5]; human, in vivo, po, 400 mg", "result": 62.3, "unit": "ng·h/mL"}, {"measurement": "CL renal", "setting": "[5]; human, in vivo, po, 400 mg", "result": 260, "unit": "mL/min"}, {"measurement": "Cmax", "setting": "[5]; human, in vivo, po, 400 mg", "result": 87, "unit": "ng/mL"}, {"measurement": "half-life", "setting": "[5]; human, in vivo, po, 400 mg", "result": 0.917, "unit": "h"}, {"measurement": "Tmax", "setting": "[5]; [7]", "result": 0.767, "unit": "h"}, {"measurement": "Tmax", "setting": "[5]; [8]", "result": "0.217 to 2", "unit": "h"}]}
{"molecule": "O=C(O)Cc1ccc(O)cc1", "note": "[4-HPAA, 4-hydroxyphenylacetic acid]", "values": [{"measurement": "correlation of systemic concentration with dizziness", "setting": "[6]", "result": "positively"}, {"measurement": "correlation of systemic concentration with dry mouth", "setting": "[6]", "result": "weakly"}, {"measurement": "correlation of systemic concentration with headache", "setting": "[6]", "result": "positively"}, {"measurement": "correlation of systemic concentration with heart palpitation", "setting": "[6]", "result": "positively"}, {"measurement": "Baseline recovery in the urine cumulated for 3 h prior to tyramine administration", "setting": "[5]; human, in vivo", "result": "2.65 (0.67–9.05) mg"}, {"measurement": "concentration at -3 h", "setting": "[5]; human, in vivo", "result": 70, "unit": "ng/mL"}, {"measurement": "participants with baseline plasma concentration below the limit of quantification", "setting": "[5]; human, in vivo, -3 h", "result": 84, "unit": "%"}, {"measurement": "dose recovered in urine in form of 4-HPAA", "setting": "[5]; human, in vivo, po", "result": 76.8, "unit": "%"}, {"measurement": "CL renal", "setting": "[5]; human, in vivo, po, 400 mg", "result": 240, "unit": "mL/min"}, {"measurement": "Cmax", "setting": "[5]; human, in vivo, po, 400 mg", "result": 9040, "unit": "ng/mL"}, {"measurement": "half-life", "setting": "[5]; human, in vivo, po, 400 mg", "result": 1.22, "unit": "h"}, {"measurement": "variation of 4-HPAA systemic exposure (plasma AUC)", "setting": "[5]; human, in vivo, po, 400 mg", "result": "up to 3 fold"}, {"measurement": "AUC(0-inf)", "setting": "[5]; human, in vivo, po, 400 mg, AUC inf", "result": 21600, "unit": "ng·h/mL"}, {"measurement": "Tmax", "setting": "[5]; [7]", "result": 1.47, "unit": "h"}, {"measurement": "Tmax", "setting": "[5]; [8]", "result": "0.483 to 2.5", "unit": "h"}]}
{"molecule": "CNCCc1ccc(O)cc1", "note": "[N-methyltyramine]", "values": [{"measurement": "Plasma and urine concentrations", "setting": "[5]; 400 mg oral tyramine, below the limit of detection", "result": "< 1", "unit": "ng/mL"}]}
